From US7250399B2, “Compounds having growth hormone releasing activity” (The Administrators of the Tulane Educational Fund, priority 1998, dated 2007)
Several values for one entry are separate records, joined by “and”; a condition that tells them apart may be missing. Identical values can stand only once.

Columns and labels:
Growth Hormone release [1] = assay: In Vivo GH Release in Rats (i.v., serum GH by RIA); set-up: species or system Sprague-Dawley rats; conditions: i.v., serum 10 min after injection
Procedure: Immature female Sprague-Dawley rats were obtained from the Charles River Laboratories (Wilmington, Mass.). After arrival they were housed at 25° C. with a 14:10 hour light:dark cycle. Water and Purina rat chow were available ad libitum. Pups were kept with their mothers until 21 days of age.
Twenty-six day old rats, six rats per treatment group, were anesthetized interperitoneally with 50 mg/kg of pentobarbital 20 minutes prior to i.v. treatment with peptide. Normal saline with 0.1% gelatin was the vehicle for intravenous (i.v.) injections of the peptides. The anesthetized rats, weighing 55-65 grams, were injected i.v. with the quantity of grown hormone releasing compounds indicated in Table 3. Injection was made as a 0.1 mL solution into the jugular vein.
All animals were sacrificed by guillotine 10 minutes after final test injection (see Table 3). Trunk blood for the determination of blood GH levels was collected following decapitation. After allowing the blood to clot, it was centrifuged and the serum was separated from the clot. Serum was kept frozen until the day of sampling for radioimmunoassay (RIA) determination of growth hormone levels according to the following procedure, as developed by the National Institute of Arthritis, Diabetes and Digestive and Kidney Diseases (NIADDK).
Reagents are generally added to the RIA analysis tubes at a single sitting, at refrigerator temperature (about 4° C.) in the following sequence: • (a) buffer, • (b) “cold” (i.e., non-radioactive) standard or unknown serum sample to be analyzed, • (c) radio-iodinated growth hormone antigen, and • (d) growth hormone antiserum.
Reagent addition is generally carried out so that there is achieved a final RIA tube dilution of about 1:30,000 (antiserum to total liquid volume; vol:vol).
The mixed reagents are then typically incubated at room temperature (about 25° C.) for about 24 hours prior to addition of a second antibody (e.g., goat or rabbit anti-monkey gamma globulin serum) which binds to and causes precipitation of the complexed growth hormone antiserum. Precipitated contents of the RIA tubes are then analyzed for the number of counts in a specified period of time in a gamma scintillation counter. A standard curve is prepared by plotting number of radioactive counts versus growth hormone (GH) level. GH levels of unknown are then determined by reference to the standard curve.
Serum GH was measured by RIA with reagents provided by the National Hormone and Pituitary Program.
Serum levels in Tables 3 and 4 are recorded in ng/mL in terms of the rat GH standard of 0.61 International Units/mg (IU/mg). Data is recorded as the mean ±standard error of the mean (SEM). Statistical analysis was performed with Student's t-test. In Table 3, the results shown are the average of studies with six rats.

Growth Hormone release [2] = assay: In Vitro Release of Growth Hormone in Rat; format: cell-based
Procedure: (§1) In vitro and in vivo activity of certain compounds were determined in rats and adult beagle dogs (in vivo activity only).

Growth Hormone release [3] = assay: In Vivo Release of Growth Hormone in Adult Beagle Dogs; set-up: unit not given here
Procedure: as §1

Aib-DTrp-DPro-3-methylpiperidinamide [DPro-m-methylpiperidine]
In Vivo Release of Growth Hormone in Rat, GH (Growth Hormone release [1]; compound at 3 (dose unit not given)): 832 ng/mL | In Vivo Release of Growth Hormone in Rat, GH (Growth Hormone release [1]; compound at 10 (dose unit not given)): 1557 ng/mL | In Vivo Release of Growth Hormone in Rat, GH (Growth Hormone release [1]; compound at 30 (dose unit not given)): 1570 ng/mL | In Vivo Release of Growth Hormone in Rat, GH (Growth Hormone release [1]; compound at 100 (dose unit not given)): 1762 ng/mL | In Vitro Release of Growth Hormone in Rat, GH (Growth Hormone release [2]; compound at .0001 (dose unit not given)): 434 ng/mL | In Vitro Release of Growth Hormone in Rat, GH (Growth Hormone release [2]; compound at .0003 (dose unit not given)): 458 ng/mL | In Vitro Release of Growth Hormone in Rat, GH (Growth Hormone release [2]; compound at .001 (dose unit not given)): 633 ng/mL | In Vitro Release of Growth Hormone in Rat, GH (Growth Hormone release [2]; compound at .003 (dose unit not given)): 837 ng/mL | In Vitro Release of Growth Hormone in Rat, GH (Growth Hormone release [2]; compound at .01 (dose unit not given)): 968 ng/mL | In Vivo Release of Growth Hormone in Adult Beagle Dogs (Growth Hormone release [3]; oral dose 1 mg/kg, time 0 hr, 1 mg/kg): 2 | In Vivo Release of Growth Hormone in Adult Beagle Dogs (Growth Hormone release [3]; oral dose 1 mg/kg, time 0.5 hr, 1 mg/kg): 53 and 63 | In Vivo Release of Growth Hormone in Adult Beagle Dogs (Growth Hormone release [3]; oral dose 1 mg/kg, time 1 hr, 1 mg/kg): 19 and 32 | In Vivo Release of Growth Hormone in Adult Beagle Dogs (Growth Hormone release [3]; oral dose 1 mg/kg, time 2 hr, 1 mg/kg): 15 and 17 | In Vivo Release of Growth Hormone in Adult Beagle Dogs (Growth Hormone release [3]; oral dose 1 mg/kg, time 3 hr, 1 mg/kg): 9.6 and 13 | In Vivo Release of Growth Hormone in Adult Beagle Dogs (Growth Hormone release [3]; oral dose 1 mg/kg, time 5 hr, 1 mg/kg): 2.2 and 1.5 | In Vivo Release of Growth Hormone in Adult Beagle Dogs (Growth Hormone release [3]; oral dose 1 mg/kg, time 7 hr, 1 mg/kg): 2.2 and 3 | In Vivo Release of Growth Hormone in Adult Beagle Dogs (Growth Hormone release [3]; oral dose 1 mg/kg, time 8 hr, 1 mg/kg): 1 | In Vivo Release of Growth Hormone in Adult Beagle Dogs (Growth Hormone release [3]; oral dose 2 mg/kg, time 0.5 hr): 128 | In Vivo Release of Growth Hormone in Adult Beagle Dogs (Growth Hormone release [3]; oral dose 2 mg/kg, time 1 hr): 59 | In Vivo Release of Growth Hormone in Adult Beagle Dogs (Growth Hormone release [3]; oral dose 2 mg/kg, time 2 hr): 29 | In Vivo Release of Growth Hormone in Adult Beagle Dogs (Growth Hormone release [3]; oral dose 2 mg/kg, time 3 hr): 12 | In Vivo Release of Growth Hormone in Adult Beagle Dogs (Growth Hormone release [3]; oral dose 2 mg/kg, time 4 hr): 8.9 | In Vivo Release of Growth Hormone in Adult Beagle Dogs (Growth Hormone release [3]; oral dose 2 mg/kg, time 6 hr): 3 | In Vivo Release of Growth Hormone in Adult Beagle Dogs (Growth Hormone release [3]; oral dose 2 mg/kg, time 7 hr): 3 | In Vivo Release of Growth Hormone in Adult Beagle Dogs (Growth Hormone release [3]; oral dose 4 mg/kg, time 1 hr): 55 | In Vivo Release of Growth Hormone in Adult Beagle Dogs (Growth Hormone release [3]; oral dose 4 mg/kg, time 2 hr, 4 mg/kg): 50 and 54 | In Vivo Release of Growth Hormone in Adult Beagle Dogs (Growth Hormone release [3]; oral dose 4 mg/kg, time 3 hr, 4 mg/kg): 52 and 53 | In Vivo Release of Growth Hormone in Adult Beagle Dogs (Growth Hormone release [3]; oral dose 4 mg/kg, time 4 hr, 4 mg/kg): 20 and 34 | In Vivo Release of Growth Hormone in Adult Beagle Dogs (Growth Hormone release [3]; oral dose 4 mg/kg, time 6 hr, 4 mg/kg): 11 | In Vivo Release of Growth Hormone in Adult Beagle Dogs (Growth Hormone release [3]; oral dose 4 mg/kg, time 7 hr, 4 mg/kg): 11 | In Vivo Release of Growth Hormone in Adult Beagle Dogs (Growth Hormone release [3]; oral dose 4F [sic] (mg/kg; F not explained), time 0 hr): 1.4 | In Vivo Release of Growth Hormone in Adult Beagle Dogs (Growth Hormone release [3]; oral dose 4F [sic] (mg/kg; F not explained), time 0.5 hr): 72 | In Vivo Release of Growth Hormone in Adult Beagle Dogs (Growth Hormone release [3]; oral dose 4F [sic] (mg/kg; F not explained), time 1 hr): 84 | In Vivo Release of Growth Hormone in Adult Beagle Dogs (Growth Hormone release [3]; oral dose 4F [sic] (mg/kg; F not explained), time 2 hr): 18 | In Vivo Release of Growth Hormone in Adult Beagle Dogs (Growth Hormone release [3]; oral dose 4F [sic] (mg/kg; F not explained), time 3 hr): 4.7 | In Vivo Release of Growth Hormone in Adult Beagle Dogs (Growth Hormone release [3]; oral dose 4F [sic] (mg/kg; F not explained), time 4 hr): 3.5 | In Vivo Release of Growth Hormone in Adult Beagle Dogs (Growth Hormone release [3]; oral dose 4F [sic] (mg/kg; F not explained), time 5 hr): 1.4
